In ChEMBL document CHEMBL1140582, “Development of CXCR3 antagonists. Part 2: Identification of 2-amino(4-piperidinyl)azoles as potent CXCR3 antagonists” (Bioorg Med Chem Lett, 2007):
pKi: −log10 of the molar value. ≈ marks a conversion by molar mass, not a printed value. Each block holds one compound with its values, some of them ahead of it.

What was measured:
[1] = Intrinsic clearance in mouse microsomes at 0.5 uM; format: ADME, Microsome
[2] = target: T1, C-X-C chemokine receptor type 3 (Homo sapiens, UniProt P49682); experiment: Binding affinity to human CXCR3 receptor expressed in CHO membrane by ITAC-stimulated GTP gammaS assay; format: cell membranes
T1 sequence (P49682 whole entry): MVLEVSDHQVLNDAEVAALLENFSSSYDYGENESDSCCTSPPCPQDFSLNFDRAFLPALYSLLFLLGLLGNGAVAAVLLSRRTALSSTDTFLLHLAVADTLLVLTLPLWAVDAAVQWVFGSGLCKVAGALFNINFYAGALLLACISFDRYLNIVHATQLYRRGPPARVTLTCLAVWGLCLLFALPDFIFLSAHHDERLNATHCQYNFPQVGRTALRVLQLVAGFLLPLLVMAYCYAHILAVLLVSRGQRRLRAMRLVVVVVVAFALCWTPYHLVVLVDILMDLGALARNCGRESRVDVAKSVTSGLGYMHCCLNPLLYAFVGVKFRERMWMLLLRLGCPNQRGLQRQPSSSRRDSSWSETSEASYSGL

[3] = Partition coefficient, log D at pH 7.4; settings: octanol/water
Cytochrome P450 2D6 = Cytochrome P450 2D6 (Homo sapiens, UniProt P10635); experiment: Inhibition of CYP2D6; format: ADME
Cytochrome P450 2D6, sequence (P10635 whole entry): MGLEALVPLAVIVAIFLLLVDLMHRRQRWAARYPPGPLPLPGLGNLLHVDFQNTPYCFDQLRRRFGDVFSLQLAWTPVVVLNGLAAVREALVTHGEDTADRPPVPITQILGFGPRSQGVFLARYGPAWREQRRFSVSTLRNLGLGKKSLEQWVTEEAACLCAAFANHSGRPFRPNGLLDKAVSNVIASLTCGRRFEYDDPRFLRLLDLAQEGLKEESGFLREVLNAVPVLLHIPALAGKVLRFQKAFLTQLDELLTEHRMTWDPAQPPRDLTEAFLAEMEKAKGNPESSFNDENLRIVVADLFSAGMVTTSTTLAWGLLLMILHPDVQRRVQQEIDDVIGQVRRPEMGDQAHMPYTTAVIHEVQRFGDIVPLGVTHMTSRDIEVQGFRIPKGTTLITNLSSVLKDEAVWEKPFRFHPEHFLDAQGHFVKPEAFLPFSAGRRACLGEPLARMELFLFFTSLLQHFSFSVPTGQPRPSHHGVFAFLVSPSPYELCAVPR

[4] = AUC in mouse; format: ADME, organism-based; settings: plasma
[5] = Cmax in mouse; format: ADME, organism-based; settings: in vivo
[6] = Half life in mouse at 10 mg/kg, po; format: ADME, organism-based; design: dose 10 mg/kg, route oral; settings: in vivo
[7] = Solubility of the compound; format: physicochemical
[8] = Clearance in mouse plasma at 10 mg/kg, po; format: ADME, organism-based; design: dose 10 mg/kg, route oral
Homo sapiens = organism: Homo sapiens; experiment: Protein binding in human plasma; settings: read-out: PPB (converted)
[9] = target: T2, C-X-C chemokine receptor type 3 (Homo sapiens) (UniProt P49682); experiment: Inhibition of human CXCR3 expressed in CHO membrane at 10 uM by ITAC-stimulated GTP gammaS assay; format: cell membranes
T2 sequence (whole entry): T1 sequence (P49682 whole entry)

CYP2D6 = CYP2D6 (Homo sapiens, UniProt P10635); experiment: Inhibition of CYP2D6 at 50 uM; format: ADME
CYP2D6, sequence (P10635 whole entry): as above

Structure (SMILES): CC1(C)[C@H]2CC=C(CN3CCC(N4CC(=O)N(c5cc(C(F)(F)F)cc(C(F)(F)F)c5)C4=O)CC3)[C@@H]1C2
clearance [1]: 220 µL/min/mg | pKi [2]: 7.59 | logD [3]: > 5.5

Structure (SMILES): CCc1cccc(N2C(=O)CN(C3CCN(CC4=CC[C@H]5C[C@@H]4C5(C)C)CC3)C2=O)c1
clearance [1]: 190 µL/min/mg | pKi [2]: 6.42 | logD [3]: 4.7

Structure (SMILES): CN(C(=O)Nc1cccc(C(F)(F)F)c1)C1CCN(CC2=CC[C@H]3C[C@@H]2C3(C)C)CC1
pKi [2]: 6.74

Structure (SMILES): CCN(C(=O)Nc1cccc(C(F)(F)F)c1)C1CCN(CC2=CC[C@H]3C[C@@H]2C3(C)C)CC1
pKi [2]: 5.44

Structure (SMILES): CC1(C)[C@H]2CC=C(CN3CCC(Nc4nc5ccc(Br)cc5s4)CC3)[C@@H]1C2
clearance [1]: 150 µL/min/mg | Activity (Cytochrome P450 2D6): 0.7 µM | pKi [2]: 6.89 | logD [3]: > 5

Structure (SMILES): CN(c1nc2c(Cl)cccc2s1)C1CCN(CC2=CC[C@H]3C[C@@H]2C3(C)C)CC1
pKi [2]: 6.34 | logD [3]: 5

Structure (SMILES): CN(c1nc2ccccc2s1)C1CCN(CC2=CC[C@H]3C[C@@H]2C3(C)C)CC1
clearance [1]: 78 µL/min/mg | Activity (Cytochrome P450 2D6): 2.2 µM | pKi [2]: 6.85 | logD [3]: > 5

Structure (SMILES): CN(c1nc2ccccc2[nH]1)C1CCN(CC2=CC[C@H]3C[C@@H]2C3(C)C)CC1
pKi [2]: 6.02 | logD [3]: 4.2

Structure (SMILES): CC1(C)[C@H]2CC=C(CN3CCC(Nc4nc(-c5ccc(Cl)c(Cl)c5)cs4)CC3)[C@@H]1C2
pKi [2]: 6.34 | inhibition at 50 µM (CYP2D6): < 20% | logD [3]: > 5

Structure (SMILES): CC1(C)[C@H]2CC=C(CN3CCC(N4CCN(c5cc(C(F)(F)F)cc(C(F)(F)F)c5)C4=O)CC3)[C@@H]1C2
clearance [1]: 7 µL/min/mg | pKi [2]: 6.77 | logD [3]: > 5.5

Structure (SMILES): CC1(C)[C@H]2CC=C(CN3CCC(N4CC(=O)N(c5ccc(Cl)c(C(F)(F)F)c5)C4=O)CC3)[C@@H]1C2
clearance [1]: 280 µL/min/mg | pKi [2]: 6.92 | logD [3]: 5.3

Structure (SMILES): CN(c1nc2ccccc2o1)C1CCN(CC2=CC[C@H]3C[C@@H]2C3(C)C)CC1
pKi [2]: 6.14 | logD [3]: 4.6

Structure (SMILES): CN(c1nc2ccc(Cl)cc2s1)C1CCN(CC2=CC[C@H]3C[C@@H]2C3(C)C)CC1
clearance [1]: 48 µL/min/mg | Activity (Cytochrome P450 2D6): 7.3 µM | pKi [2]: 6.77 | logD [3]: 5

Structure (SMILES): CC1(C)[C@H]2CC=C(CN3CCC(N4CC(=O)N(c5cccc(C(F)(F)F)c5)C4=O)CC3)[C@@H]1C2
clearance [1]: 318 µL/min/mg | pKi [2]: 6.66 | logD [3]: 4.6

Structure (SMILES): CC1(C)[C@H]2CC=C(CN3CCC(Nc4nc5c(Br)cccc5s4)CC3)[C@@H]1C2
clearance [1]: 140 µL/min/mg | Activity (Cytochrome P450 2D6): 1.2 µM | pKi [2]: 6.82 | logD [3]: > 5

Structure (SMILES): CN(c1nc2cccc(Cl)c2s1)C1CCN(CC2=CC[C@H]3C[C@@H]2C3(C)C)CC1
Activity (Cytochrome P450 2D6): 4.1 µM | pKi [2]: 6.21 | logD [3]: > 5

Structure (SMILES): CN(c1nc2cc(Cl)ccc2s1)C1CCN(CC2=CC[C@H]3C[C@@H]2C3(C)C)CC1
clearance [1]: 41 µL/min/mg | Activity (Cytochrome P450 2D6): 3.5 µM | pKi [2]: 6.54 | logD [3]: 5

The remaining lines, values ahead:

clearance [1]: 88 µL/min/mg | pKi [2]: 6.70 | logD [3]: 4.6
Structure (SMILES): CC1(C)[C@H]2CC=C(CN3CCC(N4CCN(c5cc(F)cc(C(F)(F)F)c5)C4=O)CC3)[C@@H]1C2

clearance [1]: 16 µL/min/mg | Activity (Cytochrome P450 2D6): 15 µM | AUC [4]: 10800 ng·h/mL | pKi [2]: 6.57 | Cmax [5]: 2010 ng/mL | half-life [6]: 5.4 h | solubility [7]: 2.7 µg/mL (≈ 5.09 µM) | CL/F [8]: 2.8 mL/min/kg | logD [3]: 5 | fraction unbound (Homo sapiens): 0.003
Structure (SMILES): CC1(C)[C@H]2CC=C(CN3CCC(Nc4nc(-c5cc(C(F)(F)F)cc(C(F)(F)F)c5)ns4)CC3)[C@@H]1C2

clearance [1]: 230 µL/min/mg | pKi [2]: 6.12 | logD [3]: 5
Structure (SMILES): CSc1cccc(N2C(=O)CN(C3CCN(CC4=CC[C@H]5C[C@@H]4C5(C)C)CC3)C2=O)c1

inhibition [9]: < 20% | logD [3]: 3.4
Structure (SMILES): CC(=O)c1cccc(N2C(=O)CN(C3CCN(CC4=CC[C@H]5C[C@@H]4C5(C)C)CC3)C2=O)c1

inhibition [9]: < 20%
Structure (SMILES): CC1(C)[C@H]2CC=C(CN3CCC(N(Cc4ccccc4)C(=O)Nc4cccc(C(F)(F)F)c4)CC3)[C@@H]1C2

pKi [2]: 6.17
Structure (SMILES): CC1(C)[C@H]2CC=C(CN3CCC(Nc4nc5ccccc5o4)CC3)[C@@H]1C2

clearance [1]: 34 µL/min/mg | pKi [2]: 6.59 | inhibition at 50 µM (CYP2D6): < 20% | logD [3]: > 5
Structure (SMILES): CC1(C)[C@H]2CC=C(CN3CCC(Nc4nc(-c5cc(C(F)(F)F)cc(C(F)(F)F)c5)cs4)CC3)[C@@H]1C2

pKi [2]: 5.46
Structure (SMILES): CCc1cccc(N(C)C(=O)NC2CCN(CC3=CC[C@H]4C[C@@H]3C4(C)C)CC2)c1

clearance [1]: 1 µL/min/mg | Activity (Cytochrome P450 2D6): 13 µM | pKi [2]: 6.46 | logD [3]: > 5
Structure (SMILES): CC1(C)[C@H]2CC=C(CN3CCC(Nc4nc5ccccc5s4)CC3)[C@@H]1C2

clearance [1]: 290 µL/min/mg | pKi [2]: 7.00 | logD [3]: 4.85
Structure (SMILES): CC1(C)[C@H]2CC=C(CN3CCC(N4CC(=O)N(c5cc(F)cc(C(F)(F)F)c5)C4=O)CC3)[C@@H]1C2

pKi [2]: 6.06 | inhibition at 50 µM (CYP2D6): < 20% | logD [3]: 4.7
Structure (SMILES): CC1(C)[C@H]2CC=C(CN3CCC(Nc4nc(-c5ccccc5)cs4)CC3)[C@@H]1C2
